Patent US8795633B2, “Multiphoton in vivo flow cytometry method and device” (Purdue Research Foundation, priority 2005, dated 2014)
Blank lines part the entries; values can stand above or below the molecule they belong to. *1 amine or outer side, *2 acyl side, *3 side chain or, on linkers, in order; H or OH if unused. Where a SMILES comes first, the peptide text is derived from it. Bridges are numbered along the chain shown (N, C = ends). [ ]: non-standard residue; d: D form. The star is where a group is joined. ξ: configuration not given here. X1 = O=C(O)CNC(=O)C(CCCCNC(=S)Nc1ccc(-c2c3ccc(=O)cc-3oc3cc(O)ccc23)c(C(=O)O)c1)N*; X2 = O=C(C1CCN[c+]2c(N[*:1])cc3cc(O)c(O)cc3n21)[*:2]; ξOrn(N(OH)CHO) = NC(CCCN(O)C=O)C(=O)O; Glutaryl = O=C(CCCC(=O)[*:2])[*:1]

Columns and labels:
Pseudomonas aeruginosa = test: FACS analysis of pyoverdine peptide fluorescein binding and competition; details: 0.1 μM conjugate; 100-fold excess free pyoverdine
Method: The x-axis indicates fluorescence intensity.
(§1) This procedure applies to Examples 25-27. For cell sorting assays, iron limited conditions were maintained by addition of dipyridyl to the culture (final concentration of […]). Cells were grown to mid-log phase (NB or LB broth), the siderophore conjugates added to 10-20 million CFU of bacterial cells to a final siderophore conjugate concentration of 2-3 uM (total volume=11 mL), and incubated for a period of 30 minutes. Competition was performed by adding a 100-fold excess of desferrioxamine (Yersinia) or pyoverdine PaA (Pseudomonas) to the cells 15 minutes prior to incubation with the siderophore conjugates. Fluorescently activated cell sorting (FACS) was performed on a FACS Caliber (BD Bio systems, Franklin Lakes, N.J.) cell sorter with both the forward scatter and side scatter in the log mode per manufactures guidelines for analyzing bacteria. Bacteria samples were diluted with PBS to achieve 200-400 counts per second.
Cell studies using FACS analysis and Pseudomonas aeruginosa were performed essentially as described under Example 25 (see FIG. 10) to assess binding and competition of this molecule (concentrations ranged from 1 μM to 1 nM).

Yersinia enterocolitica = test: FACS analysis of desferrioxamine fluorescein binding and competition
Method: as §1
In this case, fluorescence shift indicates binding of the fluorescein conjugate to the siderophore receptor on the bacterial surface; whereas, adding excess non-labeled ligand (competition) reduces the number of free binding sites prior to conjugate incubation. […] It is interesting to note that this compound was iron unloaded and thus consistent with unloaded siderophore binding reported by Schalk et al., Mol. Microbiol. 39: 351-360 (2001).

[1] = target: T1, cell surface folate receptors (Mus musculus, UniProt P35846); test: Fluorescence measurement of binding to folate receptor positive M109 cells in culture
T1 construct: cell surface folate receptors on folate receptor positive M109 cells in culture; endogenous in cells; host or cells: M109 cells
T1 sequence (P35846 25-232): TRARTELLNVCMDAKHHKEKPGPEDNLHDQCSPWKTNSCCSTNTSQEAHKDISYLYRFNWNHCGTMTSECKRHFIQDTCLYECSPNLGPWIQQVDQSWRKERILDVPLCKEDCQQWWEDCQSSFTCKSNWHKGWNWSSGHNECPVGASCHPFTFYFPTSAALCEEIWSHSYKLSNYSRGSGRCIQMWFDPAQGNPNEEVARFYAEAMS
Method: Texas Red C2-maleimide (Molecular Probes, Eugene, Oreg.) was dissolved in dimethyl sulfoxide (DMSO) (1 mg in 200 μl DMSO). A 1.4 molar equivalent (1 mg) of Folate-Cys was added to the solution and mixed for 4 hours at room temperature. Folate-Cys-Texas Red (Folate-Texas Red) was purified by reverse-phase HPLC on a C18 column at a flow rate of 1 ml/min. The mobile phase, consisting of 10 mM NH4HCO3 buffer, pH 7.0 (eluent A) and acetonitrile (eluent B), was maintained at a 99:1 A:B ratio for the first five minutes and then changed to 70:30 A:B in a linear gradient over the next 30 minutes followed by a 1:99 A:B linear gradient over the last 15 minutes. Folate-Cys-Texas Red eluted as two isomer peaks at 44.5 and 45.8 minutes. The product was confirmed by mass spectroscopy and the biologic activity was confirmed by fluorescence measurement of its binding to cell surface folate receptors on folate receptor positive M109 cells in culture.

SMILES: CC(O)C1NC(=O)C(CCCN(O)C=O)NC(=O)C(NC(=O)C(CCCN(O)C=O)NC(=O)C(CO)NC(=O)C(CCCNC(=N)N)NC(=O)C(CO)NC(=O)C2CCN[c+]3c(NC(=O)CCCC(=O)NC(CCC(=O)O)C(=O)NC(CCCCNC(=S)Nc4ccc(-c5c6ccc(=O)cc-6oc6cc(O)ccc56)c(C(=O)O)c4)C(=O)NCC(=O)O)cc4cc(O)c(O)cc4n32)CCCCNC(=O)C(C(C)O)NC1=O (stereo not shown) [Pyoverdine Peptide Fluorescein] ({X1-Glu-Glutaryl}-[X2]SRS[ξOrn(N(OH)CHO)]K[ξOrn(N(OH)CHO)]TT; lactam 6-C; configuration not given here)
- binding and competition (Pseudomonas aeruginosa): competition using free pyoverdine was detected

SMILES: CC(=O)N(O)CCCCCNC(=O)CCC(=O)NCCCCCNC(=O)CCC(=O)N(O)CCCCCNC(=S)Nc1ccc(-c2c3ccc(=O)cc-3oc3cc(O)ccc23)c(C(=O)O)c1 [desferrioxamine fluorescein]
- shift in fluorescence intensity with competition (Yersinia enterocolitica; competition with a 100-fold excess of desferrioxamine): 15%
- shift in fluorescence intensity (Yersinia enterocolitica; non-competed, 2 μM conjugate concentration, non-incubated control 1%): ~50%

- biologic activity (binding to cell surface folate receptors) [1]: confirmed
SMILES: Nc1nc2ncc(CNc3ccc(C(=O)NC(CCC(=O)NC(CSC4CC(=O)N(CCNS(=O)(=O)c5ccc(C6=c7cc8c9c(c7Oc7c6cc6c%10c7CCCN%10CCC6)CCC[N+]=9CCC8)c(S(=O)(=O)[O-])c5)C4=O)C(=O)O)C(=O)O)cc3)nc2c(=O)[nH]1 (stereo not shown) [Folate-Cys-Texas Red]
